From patent publication US10456509B2, “Chlorhexidine gluconate compositions, resin systems and articles” (3M INNOVATIVE PROPERTIES COMPANY, priority 2012, dated 2019)
Counter-ions that a name gives are not always drawn. Like-named read-outs stand apart in the source and are kept apart here.

Assays:
[1] = Solubility Screening of CHG in vehicles, Vacuum Method
Protocol: Solubility Screening. Screening tests were conducted to determine the solubility of CHG in a wide variety of vehicles. Tests were conducted using the Vacuum Method and the Lyophilizing Method.
Vacuum Method. […] The flask was put in a 60° C. oil bath and stirred with a magnetic stir bar. […] In those cases, after nearly all the water was removed, additional vehicle was added to bring the final weight to 50 grams. The resulting concentration of CHG and residual water were determined. Also, the final state of the solution was qualitatively evaluated to determine if the mixture was transparent and apparently homogenous, or clearly inhomogeneous.

[2] = Solubility of lyophilized CHG in vehicles, Lyophilization Method; conditions: for Apparent solubility 2 minutes / Apparent solubility 2 hours 50° C. / Apparent solubility >24 hours / Apparent solubility after cooling / Apparent solubility immediate: 0.2 wt. % lyophilized CHG; for Apparent solubility 2 minutes: after 2 minutes; for Apparent solubility 2 hours 50° C.: after 2 hours in 50° C. oven; for Apparent solubility >24 hours: after 24 hours; for Apparent solubility after cooling: after cooling to room temperature; for Apparent solubility immediate: observed immediately after mixing
Protocol: The Lyophilization Method. Lyophilized CHG was prepared by freeze-drying the aqueous CHG solution (20 wt. % solution in water, obtained from Xttrium Laboratories Inc., Chicago, Ill.).
For lower viscosity vehicles, a 5 ml sample of the non-aqueous vehicle of interest was measured into a glass vial. For higher viscosity vehicles that were difficult to transfer by volume, a 5 gm sample was weighed into the vial. Next, 0.01 g of lyophilized CHG was added to the vial. The sample was capped and mixed by shaking for 30 seconds. The sample was immediately observed and then observed again after 2 minutes and again after 24 hours. After 24 hours, the sample was placed in a 50° C. oven for 2 hours and then removed and immediately observed. These samples were allowed to cool to room temperature and a final observation was made.
CHG solutions. The solutions containing CHG were either a 20 wt. % aqueous solution of CHG or a 10-20% w/w solution of CHG in a non-aqueous vehicle. The non-aqueous solutions were prepared by freeze drying the aqueous CHG solution to produce lyophilized CHG. Finely divided, lyophilized CHG was then solubilized in a non-aqueous vehicle at room temperature with continuous stirring for eight hours.

[3] = CHG 10 wt. % in vehicle, 23-50° C., Vacuum Method
[4] = summary of Tables 1a-3b, Vacuum Method
[5] = CHG 20 wt. % in vehicle, 23-50° C., Vacuum Method
[6] = CHG 5 wt. % in vehicle, 23-50° C., Vacuum Method

CC(O)C(C)O (centres unmarked) [2,3-butanediol]
Final State [1]: Homogeneous

OCCCCO [1,4-butanediol]
CHG solubility in vehicle (trend) [1]: provides solubility
Final State [1]: Homogeneous

CCCCCCCCO [Example 1-octanol, 1-octanol]
Final State [1, 3]: Inhomogeneous

Polyglycerol-2-Triisostearate
Final State [1]: Inhomogeneous

CCCCOC(=O)[C@H](O)[C@@H](O)C(=O)OCCCC [Dibutyl-L-Tartrate]
Final State [1]: Homogeneous

CC(C)CCCCCCCCCCCCCCCOC(=O)CCCCCCCCCCCCCCC(C)C [Isostearyl isostearate]
Apparent solubility 2 minutes [2]: no
Apparent solubility 2 hours 50° C. [2]: partial
Apparent solubility >24 hours [2]: no
Apparent solubility after cooling [2]: partial
Apparent solubility immediate [2]: no

COCCOCCO [Diethyleneglycol monomethyl ether]
Final State [1, 3]: Homogeneous

PEG-20 glyceryl Triisostearate
Apparent solubility 2 minutes [2]: partial
Apparent solubility 2 hours 50° C. [2]: partial
Apparent solubility >24 hours [2]: partial
Apparent solubility after cooling [2]: partial
Apparent solubility immediate [2]: no

CCCCOCCOCCO [Diethyleneglycol Monobutyl Ether]
Final State [1]: Inhomogeneous

Decaglyceryl tristearate
Final State [1]: Homogeneous

OCCCCC(O)CO (centres unmarked) [1,2,6-trihydroxyhexane]
Final State [1, 3]: Homogeneous

Glycereth-18 Ethylhexanoate
Apparent solubility 2 minutes [2]: no
Apparent solubility 2 hours 50° C. [2]: soluble
Apparent solubility >24 hours [2]: soluble
Apparent solubility after cooling [2]: soluble
Apparent solubility immediate [2]: no

OC1CCC(O)CC1 (centres unmarked) [1,4-cyclohexanediol]
Final State [1, 3]: Inhomogeneous
CHG solubility in vehicle (trend) [1, 4]: do not provide good solubility

CCOC(=O)CC(CC(=O)OCC)(OC(C)=O)C(=O)OCC [Acetyltriethyl citrate]
Apparent solubility 2 minutes [2]: no
Apparent solubility 2 hours 50° C. [2]: soluble
Apparent solubility >24 hours [2]: partial
Apparent solubility after cooling [2]: partial
Apparent solubility immediate [2]: no

CCOC(=O)C(=O)OCC [Oxalic Acid Diethyl Ester]
Final State [1]: Inhomogeneous

CCCCC(CC)COCC(O)CO (centres unmarked) [Ethylhexyl glycerin]
Final State [1]: Homogeneous

Sorbeth-6
Final State [1]: Homogeneous

CC(O)CCC(C)O (centres unmarked) [2,5-hexanediol]
Final State [1, 3]: Inhomogeneous
CHG solubility in vehicle (trend) [1, 4]: do not provide good solubility

Diisostearyl dimerate
Apparent solubility 2 minutes [2]: no
Apparent solubility 2 hours 50° C. [2]: soluble
Apparent solubility >24 hours [2]: no
Apparent solubility after cooling [2]: no
Apparent solubility immediate [2]: no

CCCCCCCCCCCCCCCCCC(=O)OCC(O)CO (centres unmarked) [Glyceryl monostearate]
Final State ([1]; CHG 10 wt. % in vehicle, 80° C., Vacuum Method): Homogeneous

CC(O)CO (centres unmarked) [1,2-propanediol]
Final State [1, 3]: Homogeneous

CC(C)CCCCCCCCCCCCCCC(=O)OCC(O)CO (centres unmarked) [Glyceryl monoisostearate]
Final State ([1]; CHG 10 wt. % in vehicle, 23-60° C., Vacuum Method): Homogeneous
Final State ([1]; CHG 16 wt. % in vehicle, 23-60° C., Vacuum Method): Homogeneous
Final State ([1]; CHG 20 wt. % in vehicle, 60° C., Vacuum Method): Homogeneous

OCCCCCCCCO [1,8-octanediol]
Final State [1, 3]: Inhomogeneous
CHG solubility in vehicle (trend) [1, 4]: too widely separated to impart good solubility

CC(C)CCCCCCCCCCCCCCC(=O)OCC(O)CO (centres unmarked) [GMIS-1, glycerol monoisostearate]
solubility of CHG in vehicle (dissolution experiments using lyophilized CHG) ([2]; lyophilized CHG): limited

CCOC(=O)[C@H](O)[C@@H](O)C(=O)OCC [Diethyl-L-Tartrate]
Final State [1]: Homogeneous

CCCCCCCC/C=C\CCCCCCCC(=O)OCC(O)CO (centres unmarked) [Glyceryl monooleate]
Final State [1, 5]: Homogeneous

OCCCCCO [1,5-pentanediol]
CHG solubility in vehicle (trend) [1]: too widely separated to impart good solubility
Final State [1]: Inhomogeneous

CCCCCCC(O)CO (centres unmarked) [1,2-octanediol]
Final State [1, 3]: Homogeneous
Final State [1, 5]: Homogeneous

COCCOCCOC [Diethyleneglycol Dimethyl Ether]
Final State [1]: Inhomogeneous

Decaglyceryl pentaoleate
Final State [1]: Inhomogeneous

CC(O)COC(C)COC(C)CO (centres unmarked) [Tripropylene glycol]
Final State [1]: Inhomogeneous

Triglyceryl diisostearate
Final State [1]: Inhomogeneous

Dimer Diol
Final State [1]: Inhomogeneous

CC(C)(O)C(C)(C)O [2,3-dimethyl-2,3-butanediol]
CHG solubility in vehicle (trend) [1]: do not always impart solubility
Final State [1]: Inhomogeneous

OCC(O)CO [Glycerol]
Final State [1]: Homogeneous

CCCCCCCC(=O)OCC(O)CO (centres unmarked) [Glyceryl monocaprylate]
Final State [1]: Homogeneous

CC(C)OC(=O)[C@@H](O)[C@H](O)C(=O)OC(C)C [Diisopropyl-D-Tartrate]
Final State [1]: Inhomogeneous

Polyethyleneglycol Dimethyl Ether
Final State [1]: Inhomogeneous

OC1CCCC(O)C1 (centres unmarked) [1,3-cyclohexanediol]
Final State ([1]; CHG 6 wt. % in vehicle, 23° C., Vacuum Method): Inhomogeneous
Final State ([1]; CHG 6 wt. % in vehicle, 50° C., Vacuum Method): Homogeneous
Final State ([1]; CHG 10 wt. % in vehicle, 23° C., Vacuum Method): Inhomogeneous
Final State ([1]; CHG 10 wt. % in vehicle, 50° C., Vacuum Method): Homogeneous

OCC1(O)COC(O)(CO)CO1 (centres unmarked) [1,3-dihydroxyacetone dimer]
Final State [1, 3]: Homogeneous

CCCCCCCCCCCC(=O)OCC(O)CO (centres unmarked) [Glyceryl monolaurate]
Final State ([1]; CHG 20 wt. % in vehicle, 75° C., Vacuum Method): Homogeneous

OCCOCCOCCO [Triethylene glycol]
Final State [1]: Homogeneous

CCOC(=O)[C@@H](O)[C@H](O)C(=O)OCC [Diethyl-D-Tartrate]
Final State [1, 3]: Homogeneous

CC(C)OC(=O)[C@H](O)[C@@H](O)C(=O)OC(C)C [Diisopropyl-L-Tartrate]
Final State [1, 3]: Inhomogeneous

CC(C)(O)CCO [3-methyl-1,3-butanediol]
Final State ([1]; CHG 1 wt. % in vehicle, 23° C., Vacuum Method): Inhomogeneous
Final State ([1]; CHG 1 wt. % in vehicle, 50° C., Vacuum Method): Homogeneous
Final State ([1]; CHG 2.5 wt. % in vehicle, 23° C., Vacuum Method): Inhomogeneous
Final State ([1]; CHG 2.5 wt. % in vehicle, 50° C., Vacuum Method): Homogeneous
Final State [1, 6]: Inhomogeneous
Final State [1, 3]: Inhomogeneous

CCCC(O)CO (centres unmarked) [1,2-pentanediol]
Final State ([1]; CHG 50 wt. % in vehicle, 23-50° C., Vacuum Method): Homogeneous

CCOCCOCCO [Diethyleneglycol monoethyl ether]
Final State ([1]; CHG 2.5 wt. % in vehicle, 23-50° C., Vacuum Method): Homogeneous
Final State [1, 6]: Inhomogeneous
Final State [1, 3]: Inhomogeneous
